Read-outs that look alike come from different tables or passages of the source.
Test system: ring stage parasites
Assay: Parasite growth potency assay, 72 hours, LDH readout
Type: cell-based
Conditions: parasite growth measured by LDH assay after 72 hours at 37° C., 0.7% rings, 2% haematocrit, read-out: EC50
Procedure, shortened: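 Parasite growth was quantified by LDH assay after a −80 °C freeze-thaw. Before that, compound was incubated for 72 h at 37 °C under humidified gas with ring-stage cultures adjusted to 0.7% parasitemia and 2% haematocrit in serum- and albumax-supplemented RPMI-Hepes.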

| Compound | EC50 (72 h) | EC50 |
| --- | --- | --- |
| CCC1(CC)CC(=O)N([C@H](CCOC)c2cncc(C(=O)N[C@H]3CC(C)(C)Oc4ccccc43)c2)C(=N)N1 [Example 103, [1-[1-[5-I(4S)-2,2-dimethylchroman-4-yl]carbamoyl]pyridin-1-ium-3-yl]-3-methoxy-propyl]-4,4-diethyl-6-oxo-hexahydropyrimidin-2-ylidene]ammonium; 2,2,2-trifluoroacetate] | 0.5 nM |  |
| CCC1(CC)CC(=O)N([C@H](CCOC)c2cncc(C(=O)N[C@@H]3c4ccccc4C[C@H]3O)c2)C(=N)N1 [Example 125, [4,4-diethyl-1-[1-[5-[[(1R,2R)-2-hydroxyindan-1-yl]carbamoyl]pyridin-1-ium-3-yl]-3-methoxy-propyl]-6-oxo-hexahydropyrimidin-2-ylidene]ammonium; 2,2,2-trifluoroacetate] | 2.7 nM |  |
| CC[C@]1(C)CC(=O)N(C(CCOC(F)F)c2cccc(C(=O)NC3c4ccccc4OC(C)(C)C3(C)O)c2)C(=N)N1 (single isomer, unassigned) [Example 240B] |  | 0.25 nM |
| N=C1N[C@@](CC2CC2)(c2ccccc2)CC(=O)N1Cc1cccc(C(=O)N[C@@H]2CCOc3ccccc32)c1 [Example 6B, [(4R)-1-[[3-[[(4R)-chroman-4-yl]carbamoyl]phenyl]methyl]-4-(cyclopropylmethyl)-6-oxo-4-phenyl-hexahydropyrimidin-2-ylidene]ammonium; 2,2,2-trifluoroacetate] | 83.9 nM |  |
| CC1(C)CC(=O)N(Cc2cccc(C(=O)N[C@@H]3c4ccccc4OC(C)(C)[C@H]3O)c2)C(=N)N1 [Example 194, [1-[[3-[[(3S,4R)-3-hydroxy-2,2-dimethyl-chroman-4-yl]carbamoyl]phenyl]methyl]-4,4-dimethyl-6-oxo-hexahydropyrimidin-2-ylidene]ammonium; 2,2,2-trifluoroacetate] | 11.6 nM |  |
| CCC1(CC)CC(=O)N([C@H](CCOC(F)F)c2cccc(C(=O)N[C@H]3CC(C)(C)Oc4ccccc43)c2)C(=N)N1 [Example 160, [1-[3-(difluoromethoxy)-1-[3-[[(4S)-2,2-dimethylchroman-4-yl]carbamoyl]phenyl]propyl]-4,4-diethyl-6-oxo-hexahydropyrimidin-2-ylidene]ammonium; 2,2,2-trifluoroacetate] | 0.5 nM |  |
| CC(C)[C@]1(C)CC(=O)N([C@@H](c2cccnc2)c2cccc(C(=O)N[C@H]3CC(C)(C)Oc4ccccc43)c2)C(=N)N1 [Example 101B, [(4S)-1-[[3-[[(4S)-2,2-dimethylchroman-4-yl]carbamoyl]phenyl]-pyridin-1-ium-3-yl-methyl]-4-isopropyl-4-methyl-6-oxo-hexahydropyrimidin-2-ylidene]ammonium; 2,2,2-trifluoroacetate] | 1.5 nM |  |
| C[C@H](c1cccc(C(=O)NC2c3ccccc3OC(C)(C)C2(C)O)c1)N1C(=N)NC(C)(C)CC1=O (stereo partly drawn) [Example 222, N-(3-hydroxy-2,2,3-trimethyl-chroman-4-yl)-3-[(1R)-1-(2-imino-4,4-dimethyl-6-oxo-hexahydropyrimidin-1-yl)ethyl]benzamide] | 2.28 nM |  |
| CCC1(CC)CC(=O)N([C@H](COC)c2cccc(C(=O)N[C@H]3CCOc4ccccc43)c2)C(=N)N1 [Example 19, [1-[1-[3-[[(4S)-chroman-4-yl]carbamoyl]phenyl]-2-methoxy-ethyl]-4,4-diethyl-6-oxo-hexahydropyrimidin-2-ylidene]ammonium; 2,2,2-trifluoroacetate] | 0.6 nM |  |
| CCC1(CC)CC(=O)N([C@H](CCN2CCOCC2)c2cccc(C(=O)N[C@H]3CC(C)(C)Oc4ccccc43)c2)C(=N)N1 [Example 135, [1-[1-[3-[[(4S)-2,2-dimethylchroman-4-yl]carbamoyl]phenyl]-3-morpholin-4-ium-4-yl-propyl]-4,4-diethyl-6-oxo-hexahydropyrimidin-2-ylidene]ammonium; 2,2,2-trifluoroacetate] | 1 nM |  |
| CCC[C@H](c1cccc(C(=O)N[C@H]2CCOc3ccccc32)c1)N1C(=N)N[C@](CC)(c2ccccc2)CC1=O [Example 70, [(4S)-1-[(1R)-1-[3-[[(4S)-chroman-4-yl]carbamoyl]phenyl]butyl]-4-ethyl-6-oxo-4-phenyl-hexahydropyrimidin-2-ylidene]ammonium; 2,2,2-trifluoroacetate] | 76 nM |  |
| CCC1(CC)CC(=O)N([C@H](CCS(C)(=O)=O)c2cccc(C(=O)N[C@H]3CCOc4ccccc43)c2)C(=N)N1 [Example 161, [1-[1-[3-[[(4S)-chroman-4-yl]carbamoyl]phenyl]-3-methylsulfonyl-propyl]-4,4-diethyl-6-oxo-hexahydropyrimidin-2-ylidene]ammonium; 2,2,2-trifluoroacetate] | 23 nM |  |
| CCC[C@H](c1cccc(C(=O)N[C@H]2c3ccccc3OCC2O)c1)N1C(=N)NC(CC)(CC)CC1=O (stereo partly drawn) [Example 127A, 3-[(1R)-1-(4,4-diethyl-2-imino-6-oxo-hexahydropyrimidin-1-yl)butyl]-N-(3-hydroxychroman-4-yl)benzamide] | 97.4 nM |  |
| CCC1(CC)CC(=O)N(Cc2ccc(F)c(C(=O)N[C@H]3CCOc4ccccc43)c2)C(=N)N1 [Example 21, [1-[[3-[[(4S)-chroman-4-yl]carbamoyl]-4-fluoro-phenyl]methyl]-4,4-diethyl-6-oxo-hexahydropyrimidin-2-ylidene]ammonium; 2,2,2-trifluoroacetate] | 3.5 nM |  |
| CCC1(CC)CC(=O)N([C@H](c2cccnc2)c2cccc(C(=O)N[C@@H]3c4ccccc4C[C@H]3O)c2)C(=N)N1 [Example 109A, [4,4-diethyl-1-[[3-[[(1R,2R)-2-hydroxyindan-1-yl]carbamoyl]phenyl]-pyridin-1-ium-3-yl-methyl]-6-oxo-hexahydropyrimidin-2-ylidene]ammonium; 2,2,2-trifluoroacetate] | 1.6 nM |  |
| CCC1(CC)NC(=N)N([C@H](CCOC)c2cccc(C(=O)N[C@@H]3c4ccccc4C[C@H]3O)c2)C(=O)C1C (stereo partly drawn) [Example 227B, 3-[(1R)-1-(4,4-diethyl-2-imino-5-methyl-6-oxo-hexahydropyrimidin-1-yl)-3-methoxy-propyl]-N-[(1R,2R)-2-hydroxyindan-1-yl]benzamide] |  | 1.16 nM |
| CCC1(CC)CC(=O)N([C@H](CCOC)c2cccc(C(=O)NC3c4ccccc4CC3(C)O)c2)C(=N)N1 (single isomer, unassigned) [Example 142B, 3-[1-(4,4-diethyl-2-imino-6-oxo-hexahydropyrimidin-1-yl)-3-methoxy-propyl]-N-(2-hydroxy-2-methyl-indan-1-yl)benzamide] | 1.4 nM |  |
| CCC1(CC)CC(=O)N(Cc2ccnc(C(=O)N[C@H]3CCOc4ccccc43)c2)C(=N)N1 [Example 22, [1-[[2-[[(4S)-chroman-4-yl]carbamoyl]-4-pyridyl]methyl]-4,4-diethyl-6-oxo-hexahydropyrimidin-2-ylidene]ammonium; 2,2,2-trifluoroacetate] | 17.2 nM |  |
| CCC1(CC)CC(=O)N([C@H](C)c2cccc(C(=O)N[C@@H]3c4ccccc4OC[C@@]3(C)O)c2)C(=N)N1 [Example 205A, [4,4-diethyl-1-[(1R)-1-[3-[[(3S,4R)-3-hydroxy-3-methyl-chroman-4-yl]carbamoyl]phenyl]ethyl]-6-oxo-hexahydropyrimidin-2-ylidene]ammonium; 2,2,2-trifluoroacetate] | 1.1 nM |  |
| CCC1(CC)CC(=O)N([C@@H](c2cccc(C(=O)N[C@@H]3CC(C)(C)Oc4ccccc43)c2)c2cncs2)C(=N)N1 (stereo in doubt) [Example 90B, 3-[(4,4-diethyl-2-imino-6-oxo-hexahydropyrimidin-1-yl)-thiazol-5-yl-methyl]-N-(2,2-dimethylchroman-4-yl)benzamide] |  | 0.5 nM |
| CCC1(CC)CC(=O)N(Cc2cccc(C(=O)N[C@@H]3c4cc(F)ccc4OC(C)(C)[C@H]3O)c2)C(=N)N1 (stereo in doubt) [Example 147, [4,4-diethyl-1-[[3-[(6-fluoro-3-hydroxy-2,2-dimethyl-chroman-4-yl)carbamoyl]phenyl]methyl]-6-oxo-hexahydropyrimidin-2-ylidene]ammonium; 2,2,2-trifluoroacetate] | 1 nM |  |
| CCC1(CC)CC(=O)N([C@@H](c2cccc(C(=O)N[C@H]3CCOc4ccccc43)c2)c2cncs2)C(=N)N1 [Example 85A, N-[(4S)-chroman-4-yl]-3-[(4,4-diethyl-2-imino-6-oxo-hexahydropyrimidin-1-yl)-thiazol-5-yl-methyl]benzamide] | 1 nM |  |
| CCC1(CC)CC(=O)N([C@H](c2cncnc2)c2cccc(C(=O)N[C@@H]3c4ccccc4C[C@H]3O)c2)C(=N)N1 [Example 110B, 3-[(4,4-diethyl-2-imino-6-oxo-hexahydropyrimidin-1-yl)-pyrimidin-5-yl-methyl]-N-[(1R,2R)-2-hydroxyindan-1-yl]benzamide] | 8.3 nM |  |
| CCC1(CC)CC(=O)N([C@H](CC(C)C)c2cccc(C(=O)N[C@H]3CCOc4ccccc43)c2)C(=N)N1 [Example 14A, [1-[1-[3-[[(4S)-chroman-4-yl]carbamoyl]phenyl]-3-methyl-butyl]-4,4-diethyl-6-oxo-hexahydropyrimidin-2-ylidene]ammonium; 2,2,2-trifluoroacetate] | 0.2 nM |  |
| CCC[C@H](c1cccc(C(=O)N[C@H]2CCOc3ccccc32)c1)N1C(=N)N[C@@](CC)(c2ccccc2)CC1=O [Example 66, [(4R)-1-[(1R)-1-[3-[[(4S)-chroman-4-yl]carbamoyl]phenyl]butyl]-4-ethyl-6-oxo-4-phenyl-hexahydropyrimidin-2-ylidene]ammonium; 2,2,2-trifluoroacetate] | 7.5 nM |  |
| CC[C@]1(C)CC(=O)N([C@H](CCOC)c2cccc(C(=O)NC3c4cc(F)ccc4OC(C)(C)C3(C)O)c2)C(=N)N1 (single isomer, unassigned) [Example 237B] |  | 0.19 nM |
| CCC1(CC)CC(=O)N(Cc2cccc(C(=O)N[C@@H]3CCOc4ccc(Cl)cc43)c2)C(=N)N1 [Example 215A, N-(6-chlorochroman-4-yl)-3-[(4,4-diethyl-2-imino-6-oxo-hexahydropyrimidin-1-yl)methyl]benzamide] | 70 nM |  |

Reference: patent US12629374B2, “Antimalarial agents” (Merck Sharp & Dohme LLC, priority 2020, dated 2026)
